In PubChem BioAssay AID256 (DTP/NCI, 2004):
Toxic doses and inconclusive results are not listed.

Tested on: CD2F1 mice, L1210 leukemia ip, survival T/C
Experiment: NCI In Vivo Anticancer Drug Screen. Data for tumor model L1210 Leukemia (intraperitoneal) in CD2F1 (CDF1) mice
Settings: higher = longer survival
Outline: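 Activity against a transplanted murine tumor was judged by comparing the compound group with a vehicle group. The outcome in the treated animals was divided by that in the controls.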

[1] = endpoint: mean survival time, dose: 100.0 mg/kg/injection, schedule: Q04DX003 (ip), vehicle: saline with Tween-80
[2] = endpoint: mean survival time, dose: 400.0 mg/kg/injection, schedule: Q04DX003 (ip), vehicle: saline with Tween-80
[3] = endpoint: mean survival time, dose: 200.0 mg/kg/injection, schedule: Q04DX003 (ip), vehicle: saline with Tween-80

`O=CNc1cccc2ccc3c4ccccc4ccc3c12` was tested, and the T/C [1] was 98 % of control and the T/C [2] was 91 % of control.
In the case of `Nc1nc(SSc2nc(N)nc3c2ncn3C2CC(O)C(CO)O2)c2ncn(C3CC(O)C(CO)O3)c2n1` (stereo unspecified), the T/C (endpoint: mean survival time, dose: 2.3 mg/kg/injection, schedule: Q01DX009 (ip), vehicle: saline) is reported as 152 % of control, the T/C (endpoint: mean survival time, dose: 4.7 mg/kg/injection, schedule: Q01DX009 (ip), vehicle: saline) is reported as 162 % of control and the T/C (endpoint: mean survival time, dose: 18.8 mg/kg/injection, schedule: Q01DX009 (ip), vehicle: saline) is reported as 119 % of control.
With `Cc1ccc(S(=O)(=O)[N-]Cl)cc1.[Cl][Pt][Cl]` the T/C (endpoint: mean survival time, dose: 4.7 mg/kg/injection, schedule: Q04DX003 (ip), vehicle: saline with Tween-80) was 95 % of control, the T/C (endpoint: mean survival time, dose: 9.4 mg/kg/injection, schedule: Q04DX003 (ip), vehicle: saline with Tween-80) was 100 % of control and the T/C (endpoint: mean survival time, dose: 18.75 mg/kg/injection, schedule: Q04DX003 (ip), vehicle: saline with Tween-80) was 100 % of control. For the same compound, the T/C (endpoint: mean survival time, dose: 37.5 mg/kg/injection, schedule: Q04DX003 (ip), vehicle: saline with Tween-80) was 103 % of control and the T/C (endpoint: mean survival time, dose: 75.0 mg/kg/injection, schedule: Q04DX003 (ip), vehicle: saline with Tween-80) was 103 % of control.
With `C1CCC(CCC2CCCC[N-]2)[N-]C1.C1CCC(CCC2CCCC[N-]2)[N-]C1.[Ni+2].[O-][Cl+3]([O-])([O-])O` (stereo unspecified) the T/C (endpoint: mean survival time, dose: 5.0 mg/kg/injection, schedule: Q01DX009 (ip), vehicle: saline) was 103 % of control, the T/C (endpoint: mean survival time, dose: 10.0 mg/kg/injection, schedule: Q01DX009 (ip), vehicle: saline) was 104 % of control and the T/C (endpoint: mean survival time, dose: 12.5 mg/kg/injection, schedule: Q01DX001 (ip), vehicle: saline with Tween-80) was 90 % of control. The T/C (endpoint: mean survival time, dose: 12.5 mg/kg/injection, schedule: Q04DX002 (ip), vehicle: saline) was 95 % of control, the T/C (endpoint: mean survival time, dose: 12.5 mg/kg/injection, schedule: Q04DX003 (ip), vehicle: saline) was 104 % of control and the T/C (endpoint: mean survival time, dose: 20.0 mg/kg/injection, schedule: Q01DX009 (ip), vehicle: saline) was 103 % of control. The T/C (endpoint: mean survival time, dose: 25.0 mg/kg/injection, schedule: Q01DX001 (ip), vehicle: saline) was 102 % of control, the T/C (endpoint: mean survival time, dose: 25.0 mg/kg/injection, schedule: Q04DX002 (ip), vehicle: saline) was 98 % of control and the T/C (endpoint: mean survival time, dose: 25.0 mg/kg/injection, schedule: Q04DX003 (ip), vehicle: saline) was 108 % of control. For the same compound, the T/C (endpoint: mean survival time, dose: 40.0 mg/kg/injection, schedule: Q01DX009 (ip), vehicle: saline) was 109 % of control, the T/C (endpoint: mean survival time, dose: 50.0 mg/kg/injection, schedule: Q01DX001 (ip), vehicle: saline) was 102 % of control and the T/C (endpoint: mean survival time, dose: 50.0 mg/kg/injection, schedule: Q04DX002 (ip), vehicle: saline) was 98 % of control. For the same compound, the T/C (endpoint: mean survival time, dose: 50.0 mg/kg/injection, schedule: Q04DX003 (ip), vehicle: saline) was 102 % of control, the T/C (endpoint: mean survival time, dose: 75.0 mg/kg/injection, schedule: Q01DX001 (ip), vehicle: saline) was 101 % of control and the T/C (endpoint: mean survival time, dose: 100.0 mg/kg/injection, schedule: Q01DX001 (ip), vehicle: saline) was 102 % of control. For the same compound, the T/C (endpoint: mean survival time, dose: 100.0 mg/kg/injection, schedule: Q04DX002 (ip), vehicle: saline) was 102 % of control and the T/C (endpoint: mean survival time, dose: 100.0 mg/kg/injection, schedule: Q04DX003 (ip), vehicle: saline) was 104 % of control.
With `COc1c2c(c(OC)c3c(OC)c4ccccc4c(OC)c13)CC(O)CC2` (stereo unspecified) the T/C (endpoint: mean survival time, dose: 12.5 mg/kg/injection, schedule: Q01DX005 (ip), vehicle: Klucel (hydroxypropylcellulose) (HPC)) was 92 % of control, the T/C (endpoint: mean survival time, dose: 25.0 mg/kg/injection, schedule: Q01DX005 (ip), vehicle: Klucel (hydroxypropylcellulose) (HPC)) was 90 % of control and the T/C (endpoint: mean survival time, dose: 50.0 mg/kg/injection, schedule: Q01DX005 (ip), vehicle: Klucel (hydroxypropylcellulose) (HPC)) was 97 % of control. For the same compound, the T/C (endpoint: mean survival time, dose: 100.0 mg/kg/injection, schedule: Q01DX005 (ip), vehicle: Klucel (hydroxypropylcellulose) (HPC)) was 92 % of control, the T/C (endpoint: mean survival time, dose: 200.0 mg/kg/injection, schedule: Q01DX005 (ip), vehicle: Klucel (hydroxypropylcellulose) (HPC)) was 103 % of control and the T/C (endpoint: mean survival time, dose: 400.0 mg/kg/injection, schedule: Q01DX005 (ip), vehicle: Klucel (hydroxypropylcellulose) (HPC)) was 87 % of control.
For `CCC1CCCCN1C(=S)N/N=C(\C)c1ccccn1` (stereo unspecified), the T/C (endpoint: median survival time, dose: 6.25 mg/kg/injection, schedule: Q01DX009 (ip), vehicle: saline with Tween-80) was 101 % of control, the T/C (endpoint: median survival time, dose: 12.5 mg/kg/injection, schedule: Q01DX009 (ip), vehicle: saline with Tween-80) was 108 % of control and the T/C (endpoint: median survival time, dose: 25.0 mg/kg/injection, schedule: Q01DX009 (ip), vehicle: saline with Tween-80) was 86 % of control.
For `O=C(O)c1ccccc1C(=O)c1cccc2ccccc12`, the T/C [1] was 104 % of control and the T/C [3] was 96 % of control.
For `CCOC(=O)NC1CCC1NC(=O)OCC` (stereo unspecified), the T/C [1] was 95 % of control, the T/C [3] was 106 % of control and the T/C [2] was 107 % of control.
